# Source: patent publication US20080139525A1, “ANTIOXIDANT THERAPIES” (The Brigham and Women's Hospital, Inc., priority 2006, published 2008)
# How the values were obtained:
# [1] = tested on: isolated rat hearts (wild-type and GPx-TG); test: Langendorff isolated heart, zero-flow ischemia followed by reperfusion (Example 1); type: ex vivo; conditions: compared with vehicle control
# Method: Hearts were isolated from rats and perfused in the Langendorff mode as previously described (Jain et al., Am J Physiol. 2001; 280:H569-H575; Lim et al., Am J Physiol. 1999; 277:H2083-H2090). Briefly, animals were injected intraperitoneally with heparin (10,000 U/kg) and anesthetized with a mixture of ketamine (150 mg/kg) and xylazine (15 mg/kg). The thorax was rapidly opened and the heart excised and arrested in ice-cold saline. A short perfusion cannula was inserted into the aortic root to initiate retrograde perfusion. The hearts were perfused with Krebs-Henseleit buffer (in mmol/L: NaCl 118, KCl 4.7, CaCl2 1.8, KH2PO4 1.2, MgSO4 1.2, NaHCO3 24.0, and glucose 10.0) equilibrated with 95% O2/5% CO2 to yield a pH of 7.4. A thin cannula was pierced through the apex of the left ventricle (LV) to vent thebesian drainage. A ventricular balloon, composed of polyvinyl chloride film and connected to a polyethylene tube, was inserted into the LV through the mitral valve via an incision in the left atrium. The balloon was connected to a pressure transducer (Statham P23Db, Gould) for recording of LV pressures. The balloon was inflated with saline to adjust the end-diastolic pressure (EDP) to 10 mm Hg, and the balloon volume was held constant for the duration of the experiment. Hearts were paced (Grass Instruments) with platinum wires placed on the epicardial surface of the right ventricle. Coronary perfusion pressure was held constant during the duration of the experiment at 80 mm Hg. An inline ultrasonic flow probe (Transonics Systems Inc) was positioned immediately above the aortic cannula to measure coronary flow. Systolic pressure, EDP, and coronary flow were collected online by use of a commercially available data acquisition system (PowerLab ADInstruments). Developed pressure (DevP) (the difference between systolic and diastolic pressures) and EDP were used as indices of contractile and diastolic function, respectively.
# During 20 minutes of baseline stabilization, all hearts were maintained at 37° C. and paced at 7 Hz. Hearts were subsequently subjected to 15 minutes of zero-flow ischemia followed by 30 minutes of reperfusion with or without a reperfusion solution containing 23 μM of the SOD mimetic M40403. The EDP was higher and DevP was lower in the wild-type (WT) rats with this treatment compared with vehicle control.
# rat hearts = test: No-flow ischemia-reperfusion of hearts after 2 weeks of Se supplementation (Example 2); type: in vivo; conditions: 23 μM M40403 in perfusate with sodium selenite 50 μg/kg/day for 2 weeks; compared to M40403 without sodium selenite
# Method: Hearts were isolated from rats and perfused in the Langendorff mode as previously described (Jain et al., Am J Physiol. 2001; 280:H569-H575; Lim et al., Am J Physiol. 1999; 277:H2083-H2090). Briefly, animals were injected intraperitoneally with heparin (10,000 U/kg) and anesthetized with a mixture of ketamine (150 mg/kg) and xylazine (15 mg/kg). The thorax was rapidly opened and the heart excised and arrested in ice-cold saline. A short perfusion cannula was inserted into the aortic root to initiate retrograde perfusion. The hearts were perfused with Krebs-Henseleit buffer (in mmol/L: NaCl 118, KCl 4.7, CaCl2 1.8, KH2PO4 1.2, MgSO4 1.2, NaHCO3 24.0, and glucose 10.0) equilibrated with 95% O2/5% CO2 to yield a pH of 7.4. A thin cannula was pierced through the apex of the left ventricle (LV) to vent thebesian drainage. A ventricular balloon, composed of polyvinyl chloride film and connected to a polyethylene tube, was inserted into the LV through the mitral valve via an incision in the left atrium. […]
# Hearts were treated first for 2 weeks with or without Se supplementation (as sodium selenite, 50 μg/kg/day), after which they were subjected to no-flow ischemia-reperfusion with 23 μM of the SOD mimetic M40403 added to the perfusate. EDP and DevP (as measures of ventricular performance) were monitored over time following restoration of perfusion. […]
# [2] = GPx-TG (glutathione peroxidase-1 transgene) with added dietary selenium, 23 μM M40403 in reperfusion solution
# [3] = wild-type (WT) rats, 15 min zero-flow ischemia, 30 min reperfusion with 23 μM M40403
smiles,measurement,setting,value
[Cl-].[Cl-].[Mn+2].c1cc2nc(c1)CN[C@@H]1CCCC[C@H]1NCCN[C@@H]1CCCC[C@H]1NC2 [M40403],developed pressure (DevP),[1]; [2],no change
same,end-diastolic pressure (EDP),[1]; [2],"improved EDP (i.e., lower EDP)"
same,developed pressure (DevP),[1]; [3],lower
same,end-diastolic pressure (EDP),[1]; [3],higher
same,end-diastolic pressure (EDP),rat hearts,"improved EDP (i.e., lower EDP)"
